Experimental data from patent publication US6632799B2, “Injectable ready-to-use solutions containing an antitumor anthracycline glycoside” (Pharmacia & Upjohn Company, priority 1985, dated 2003).
Structures can show the parent of a compound that is named as a salt.

Assays:
[1] = Shelf-life (t 90%) forecast of doxorubicin.HCl 2 mg/ml 0.9% sodium chloride solution adjusted to pH 3.0; format: physicochemical; settings: for Kobs × 10^3: observed
Experimental: The Arrhenius equation for the degradation process was calculated from the Kobs obtained from the different temperatures taken in account for the testing (table 13).

[2] = Shelf-life (t 90%) forecast of doxorubicin.HCl 2 mg/ml sterile water solution adjusted to pH 3.0; format: physicochemical; settings: for Kobs × 10^3: observed
Experimental: The Arrhenius equation for the degradation process was calculated from the Kobs obtained from the different temperatures taken in account for the testing (table 11).
Applying the equation, the rate constants for the pseudo-first order reactions at 4° C., 8° C., 15° C. and 27° C. were calculated, together with the expected t90% at these temperatures.

[3] = 0.9% NaCl pH 3.0, 27° C., Arrhenius
[4] = 0.9% sodium chloride pH 3.0, 35° C., 0 days
[5] = 0.9% sodium chloride pH 3.0, 35° C., 8 days
[6] = 0.9% sodium chloride pH 3.0, 35° C., 14 days
[7] = 0.9% sodium chloride pH 3.0, 35° C., 21 days
[8] = 0.9% sodium chloride pH 3.0, 35° C., 28 days
[9] = 0.9% sodium chloride pH 3.0, 45° C., 0 days
[10] = 0.9% sodium chloride pH 3.0, 45° C., 4 days
[11] = 0.9% sodium chloride pH 3.0, 45° C., 8 days
[12] = 0.9% sodium chloride pH 3.0, 45° C., 21 days
[13] = 0.9% sodium chloride pH 3.0, 55° C., 0 days
[14] = 0.9% sodium chloride pH 3.0, 55° C., 11 days
[15] = 0.9% sodium chloride pH 3.0, 60° C., 0 days
[16] = 0.9% sodium chloride pH 3.0, 60° C., 1 day
[17] = 0.9% sodium chloride pH 3.0, 60° C., 3 days
[18] = sterile water pH 3.0, 15° C., Arrhenius
[19] = sterile water pH 3.0, 27° C., 8 days
[20] = sterile water pH 3.0, 27° C., 14 days
[21] = sterile water pH 3.0, 27° C., 28 days
[22] = sterile water pH 3.0, 27° C., 32 days
[23] = sterile water pH 3.0, 27° C., 60 days
[24] = sterile water pH 3.0, 27° C., 90 days
[25] = sterile water pH 3.0, 35° C., 4 days
[26] = sterile water pH 3.0, 35° C., 8 days
[27] = sterile water pH 3.0, 35° C., 14 days
[28] = sterile water pH 3.0, 35° C., 32 days
[29] = sterile water pH 3.0, 45° C., 4 days
[30] = sterile water pH 3.0, 45° C., 8 days
[31] = sterile water pH 3.0, 45° C., 28 days
[32] = sterile water pH 3.0, 55° C., 4 days
[33] = sterile water pH 3.0, 55° C., 32 days

Q: For COc1cccc2c1C(=O)c1c(O)c3c(c(O)c1C2=O)C[C@@](O)(C(=O)CO)C[C@@H]3O[C@H]1C[C@H](N)[C@H](O)[C@H](C)O1 [Doxorubicin.HCl, doxorubicin hydrochloride], which “commercially meaningful shelf-life (t90% forecasts)” value ([1]; 2 mg/ml pH 3.0 in 0.9% sodium chloride) is on record?
A: Its value is “only if the product is stored in a refrigerator”.

Q: And the “K × 10^3 calculated” value ([1]; 0.9% NaCl pH 3.0, 4° C., Arrhenius)?
A: The value was 0.017 1/days.

Q: And the “K × 10^3 calculated” value ([1]; 0.9% NaCl pH 3.0, 8° C., Arrhenius)?
A: Its value is 0.037 1/days.

Q: What about the “K × 10^3 calculated” value ([1]; 0.9% NaCl pH 3.0, 15° C., Arrhenius) of the same compound?
A: The value was 0.137 1/days.

Q: And the “K × 10^3 calculated” value [1, 3]?
A: The value was 1.112 1/days.

Q: And the t90% [1, 3]?
A: The t90% was 94 days.

Q: And the “Kobs × 10^3” value ([1]; 0.9% NaCl pH 3.0, 35° C.)?
A: Its value is 3.89 1/days.

Q: And the “Kobs × 10^3” value ([1]; 0.9% NaCl pH 3.0, 45° C.)?
A: The value was 21.61 1/days.

Q: What about the “Kobs × 10^3” value ([1]; 0.9% NaCl pH 3.0, 55° C.) of the same compound?
A: Its value is 75.90 1/days.

Q: What about the “Kobs × 10^3” value ([1]; 0.9% NaCl pH 3.0, 60° C.) of the same compound?
A: The value was 164.90 1/days.

Q: What about the Doxorubicin.HCl assay [1, 4] of the same compound?
A: Its Doxorubicin.HCl assay is 2.061 mg/mL.

Q: What about the pH [1, 4] of the same compound?
A: Its pH is 3.05.

Q: What about the Doxorubicin.HCl assay [1, 5] of the same compound?
A: The Doxorubicin.HCl assay was 2.045 mg/mL.

Q: What about the pH [1, 5] of the same compound?
A: Its pH is 2.98.

Q: What about the Doxorubicin.HCl assay [1, 6] of the same compound?
A: The Doxorubicin.HCl assay was 1.946 mg/mL.

Q: And the pH [1, 6]?
A: The pH was 2.92.

Q: And the Doxorubicin.HCl assay [1, 7]?
A: The Doxorubicin.HCl assay was 1.932 mg/mL.

Q: And the pH [1, 7]?
A: Its pH is 2.92.

Q: And the Doxorubicin.HCl assay [1, 8]?
A: The Doxorubicin.HCl assay was 1.852 mg/mL.

Q: What about the pH [1, 8] of the same compound?
A: The pH was 2.98.

Q: What about the Doxorubicin.HCl assay [1, 9] of the same compound?
A: Its Doxorubicin.HCl assay is 2.061 mg/mL.

Q: And the pH [1, 9]?
A: Its pH is 3.05.

Q: What about the Doxorubicin.HCl assay [1, 10] of the same compound?
A: The Doxorubicin.HCl assay was 1.996 mg/mL.

Q: What about the pH [1, 10] of the same compound?
A: The pH was 2.98.

Q: What about the Doxorubicin.HCl assay [1, 11] of the same compound?
A: The Doxorubicin.HCl assay was 1.724 mg/mL.

Q: And the pH [1, 11]?
A: Its pH is 2.97.

Q: What about the pH ([1]; 0.9% sodium chloride pH 3.0, 45° C., 14 days) of the same compound?
A: The pH was 2.98.

Q: And the Doxorubicin.HCl assay [1, 12]?
A: Its Doxorubicin.HCl assay is 1.344 mg/mL.

Q: What about the pH [1, 12] of the same compound?
A: The pH was 2.93.

Q: What about the Doxorubicin.HCl assay [1, 13] of the same compound?
A: Its Doxorubicin.HCl assay is 2.061 mg/mL.

Q: What about the pH [1, 13] of the same compound?
A: Its pH is 3.05.

Q: What about the pH ([1]; 0.9% sodium chloride pH 3.0, 55° C., 4 days) of the same compound?
A: Its pH is 2.90.

Q: What about the pH ([1]; 0.9% sodium chloride pH 3.0, 55° C., 8 days) of the same compound?
A: The pH was 2.97.

Q: And the Doxorubicin.HCl assay [1, 14]?
A: Its Doxorubicin.HCl assay is 0.900 mg/mL.

Q: What about the pH [1, 14] of the same compound?
A: Its pH is 2.95.

Q: And the Doxorubicin.HCl assay [1, 15]?
A: The Doxorubicin.HCl assay was 2.061 mg/mL.

Q: And the pH [1, 15]?
A: Its pH is 3.05.

Q: What about the Doxorubicin.HCl assay [1, 16] of the same compound?
A: Its Doxorubicin.HCl assay is 1.742 mg/mL.

Q: What about the pH [1, 16] of the same compound?
A: Its pH is 2.97.

Q: And the pH ([1]; 0.9% sodium chloride pH 3.0, 60° C., 2 days)?
A: Its pH is 2.96.

Q: What about the Doxorubicin.HCl assay [1, 17] of the same compound?
A: Its Doxorubicin.HCl assay is 1.290 mg/mL.

Q: And the pH [1, 17]?
A: Its pH is 2.98.

Q: And the pH ([1]; 0.9% sodium chloride pH 3.0, 60° C., 4 days)?
A: Its pH is 2.96.

Q: And the “commercially meaningful shelf-life (t90% forecasts)” value ([2]; 2 mg/ml pH 3.0 aqueous solution)?
A: Its value is “only if the product is stored in a refrigerator”.

Q: What about the “K × 10^3 calculated” value ([2]; sterile water pH 3.0, 4° C., Arrhenius) of the same compound?
A: The value was 0.019 1/days.

Q: And the “K × 10^3 calculated” value ([2]; sterile water pH 3.0, 8° C., Arrhenius)?
A: The value was 0.038 1/days.

Q: What about the “K × 10^3 calculated” value [2, 18] of the same compound?
A: Its value is 0.130 1/days.

Q: And the t90% [2, 18]?
A: Its t90% is 810 days.

Q: And the pH ([2]; sterile water pH 3.0, 27° C., 0 days)?
A: The pH was 3.00.

Q: What about the Doxorubicin.HCl assay [2, 19] of the same compound?
A: Its Doxorubicin.HCl assay is 1.993 mg/mL.

Q: What about the pH [2, 19] of the same compound?
A: Its pH is 2.95.

Q: And the Doxorubicin.HCl assay [2, 20]?
A: Its Doxorubicin.HCl assay is 1.988 mg/mL.

Q: And the pH [2, 20]?
A: Its pH is 2.94.

Q: What about the Doxorubicin.HCl assay [2, 21] of the same compound?
A: Its Doxorubicin.HCl assay is 1.941 mg/mL.

Q: What about the pH [2, 21] of the same compound?
A: Its pH is 2.94.

Q: And the Doxorubicin.HCl assay [2, 22]?
A: The Doxorubicin.HCl assay was 1.962 mg/mL.

Q: And the pH [2, 22]?
A: The pH was 2.95.

Q: And the Doxorubicin.HCl assay [2, 23]?
A: The Doxorubicin.HCl assay was 1.908 mg/mL.

Q: And the pH [2, 23]?
A: Its pH is 2.96.

Q: And the Doxorubicin.HCl assay [2, 24]?
A: Its Doxorubicin.HCl assay is 1.850 mg/mL.

Q: What about the pH [2, 24] of the same compound?
A: The pH was 2.93.

Q: And the “K × 10^3 calculated” value ([2]; sterile water pH 3.0, 27° C., Arrhenius)?
A: The value was 0.918 1/days.

Q: What about the “Kobs × 10^3” value ([2]; sterile water pH 3.0, 27° C.) of the same compound?
A: The value was 0.850 1/days.

Q: What about the pH ([2]; sterile water pH 3.0, 35° C., 0 days) of the same compound?
A: The pH was 3.00.

Q: What about the Doxorubicin.HCl assay [2, 25] of the same compound?
A: Its Doxorubicin.HCl assay is 1.985 mg/mL.

Q: And the pH [2, 25]?
A: Its pH is 2.96.

Q: And the Doxorubicin.HCl assay [2, 26]?
A: The Doxorubicin.HCl assay was 1.952 mg/mL.

Q: And the pH [2, 26]?
A: Its pH is 2.98.

Q: And the Doxorubicin.HCl assay [2, 27]?
A: Its Doxorubicin.HCl assay is 1.889 mg/mL.

Q: And the pH [2, 27]?
A: Its pH is 2.93.

Q: And the pH ([2]; sterile water pH 3.0, 35° C., 28 days)?
A: Its pH is 2.92.

Q: And the Doxorubicin.HCl assay [2, 28]?
A: Its Doxorubicin.HCl assay is 1.876 mg/mL.

Q: What about the pH [2, 28] of the same compound?
A: The pH was 2.92.

Q: And the “Kobs × 10^3” value ([2]; sterile water pH 3.0, 35° C.)?
A: The value was 3.506 1/days.

Q: What about the pH ([2]; sterile water pH 3.0, 45° C., 0 days) of the same compound?
A: The pH was 3.00.

Q: And the Doxorubicin.HCl assay [2, 29]?
A: The Doxorubicin.HCl assay was 1.919 mg/mL.

Q: And the pH [2, 29]?
A: Its pH is 2.97.

Q: What about the Doxorubicin.HCl assay [2, 30] of the same compound?
A: Its Doxorubicin.HCl assay is 1.851 mg/mL.

Q: What about the pH [2, 30] of the same compound?
A: The pH was 2.95.

Q: What about the pH ([2]; sterile water pH 3.0, 45° C., 14 days) of the same compound?
A: Its pH is 2.85.

Q: What about the Doxorubicin.HCl assay [2, 31] of the same compound?
A: The Doxorubicin.HCl assay was 1.393 mg/mL.

Q: And the pH [2, 31]?
A: Its pH is 2.90.

Q: What about the pH ([2]; sterile water pH 3.0, 45° C., 32 days) of the same compound?
A: The pH was 2.92.

Q: What about the “Kobs × 10^3” value ([2]; sterile water pH 3.0, 45° C.) of the same compound?
A: The value was 12.790 1/days.

Q: And the pH ([2]; sterile water pH 3.0, 55° C., 0 days)?
A: The pH was 3.00.

Q: What about the Doxorubicin.HCl assay [2, 32] of the same compound?
A: Its Doxorubicin.HCl assay is 1.760 mg/mL.

Q: And the pH [2, 32]?
A: Its pH is 2.94.

Q: What about the pH ([2]; sterile water pH 3.0, 55° C., 8 days) of the same compound?
A: The pH was 2.90.

Q: What about the pH ([2]; sterile water pH 3.0, 55° C., 14 days) of the same compound?
A: Its pH is 2.80.

Q: What about the Doxorubicin.HCl assay [2, 33] of the same compound?
A: Its Doxorubicin.HCl assay is 0.730 mg/mL.

Q: What about the pH [2, 33] of the same compound?
A: Its pH is 2.82.

Q: And the “Kobs × 10^3” value ([2]; sterile water pH 3.0, 55° C.)?
A: Its value is 49.340 1/days.
